Test results taken from PubChem BioAssay (NCI).
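96-well plates; 48 h exposure; 5 concentrations. Endpoints by linear interpolation between flanking doses. Not reached: highest tested concentration assigned. At the GI50, growth is halved. TGI is the concentration that stops growth completely.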

Columns and labels:
Assay in all cases: growth of human tumour cells (NCI), 48 h
[1] = system: NCI/ADR-RES ovarian
[2] = system: UACC-62 melanoma
[3] = system: M14 melanoma
[4] = system: T-47D breast
[5] = system: DU-145 prostate
[6] = system: SNB-19 CNS
[7] = system: HS 578T breast
[8] = system: NCI-H23 lung
[9] = system: HL-60(TB) leukemia
[10] = system: NCI-H460 lung
[11] = system: SK-MEL-28 melanoma
[12] = system: MOLT-4 leukemia
[13] = system: UO-31 renal
[14] = system: OVCAR-3 ovarian
[15] = system: LOX IMVI melanoma
[16] = system: SF-295 CNS
[17] = system: A549 NSCLC
[18] = system: SW-620 colon
[19] = system: SK-MEL-5 melanoma
[20] = system: OVCAR-8 ovarian
[21] = system: RPMI-8226 leukemia
[22] = system: SK-MEL-2 melanoma
[23] = system: RXF 393 renal
[24] = system: PC-3 prostate
[25] = system: NCI-H226 lung
[26] = system: MDA-MB-435
[27] = system: BT-549 breast
[28] = system: KM12 colon
[29] = system: SK-OV-3 ovarian
[30] = system: NCI-H522 lung
[31] = system: SR leukemia
[32] = system: OVCAR-4 ovarian
[33] = system: ACHN renal
[34] = system: 786-0 renal
[35] = system: TK-10 renal
[36] = system: CCRF-CEM leukemia
[37] = system: HCC-2998 colon
[38] = system: HOP-92 NSCLC
[39] = system: COLO 205 colon
[40] = system: IGROV1 ovarian
[41] = system: EKVX NSCLC
[42] = system: HCT-15 colon
[43] = system: MDA-MB-468 breast
[44] = system: UACC-257 melanoma
[45] = system: HCT-116 colon
[46] = system: MDA-MB-231 breast
[47] = system: SF-268 CNS
[48] = system: SNB-75 CNS
[49] = system: SF-539 CNS
[50] = system: CAKI-1 renal
[51] = system: OVCAR-5 ovarian
[52] = system: MCF7 breast
[53] = system: U251 CNS
[54] = system: A498 renal
[55] = system: HT29 colon
[56] = system: MALME-3M melanoma
[57] = system: HOP-62 NSCLC
[58] = system: SN12C renal
[59] = system: K-562 leukemia

## O=C(NN1C(=O)/C(=C/C=C/c2ccc([N+](=O)[O-])o2)SC1=S)c1ccc([N+](=O)[O-])cc1
[1]
  GI50: 0.765 µM
  TGI: 3.11 µM
[2]
  GI50: 0.218 µM
  TGI: 0.607 µM
[3]
  GI50: 0.189 µM
  TGI: 0.396 µM
[4]
  GI50: 1.8 µM
  TGI: 4.4 µM
[5]
  GI50: 0.936 µM
  TGI: 2.29 µM
[6]
  GI50: 1.46 µM
  TGI: 2.81 µM
[7]
  GI50: 1.75 µM
  TGI: 5.77 µM
[8]
  GI50: 0.289 µM
  TGI: 0.916 µM
[9]
  GI50: 1.8 µM
  TGI: 6.81 µM
[10]
  GI50: 0.341 µM
  TGI: 1.24 µM
[11]
  GI50: 1.1 µM
  TGI: 2.4 µM
[12]
  GI50: 0.322 µM
  TGI: 1.94 µM
[13]
  GI50: 1.08 µM
  TGI: 2.29 µM
[14]
  GI50: 0.491 µM
  TGI: 1.75 µM
[15]
  GI50: 0.213 µM
  TGI: 0.499 µM
[16]
  GI50: 1.7 µM
  TGI: 3.18 µM
[17]
  GI50: 1.86 µM
  TGI: 4.09 µM
[18]
  GI50: 0.188 µM
  TGI: 0.405 µM
[19]
  GI50: 0.258 µM
  TGI: 0.76 µM
[20]
  GI50: 0.266 µM
  TGI: 0.964 µM
[21]
  GI50: 0.344 µM
  TGI: 2.11 µM
[22]
  GI50: 0.239 µM
  TGI: 0.785 µM
[23]
  GI50: 0.521 µM
  TGI: 1.86 µM
[24]
  GI50: 1.23 µM
  TGI: 3.2 µM
[25]
  GI50: 0.548 µM
  TGI: 1.62 µM
[26]
  GI50: 0.243 µM
  TGI: 0.633 µM
[27]
  GI50: 0.189 µM
  TGI: 0.489 µM
[28]
  GI50: 0.925 µM
  TGI: 2.42 µM
[29]
  GI50: 1.91 µM
  TGI: 3.81 µM
[30]
  GI50: 0.187 µM
  TGI: 0.376 µM
[31]
  GI50: 0.0213 µM
  TGI: > 100 µM
[32]
  GI50: 1.45 µM
  TGI: 2.9 µM
[33]
  GI50: 1.03 µM
  TGI: 2.2 µM
[34]
  GI50: 0.247 µM
  TGI: 0.645 µM
[35]
  GI50: 1.58 µM
  TGI: 2.97 µM
[36]
  GI50: 0.262 µM
  TGI: 1.05 µM
[37]
  GI50: 0.389 µM
  TGI: 1.29 µM
[38]
  GI50: 0.31 µM
  TGI: 1.21 µM
[39]
  GI50: 0.301 µM
  TGI: 0.826 µM
[40]
  GI50: 0.601 µM
  TGI: 1.61 µM
[41]
  GI50: 0.639 µM
  TGI: 1.88 µM
[42]
  GI50: 0.13 µM
  TGI: 0.315 µM
[43]
  GI50: 1.31 µM
  TGI: 2.79 µM
[44]
  GI50: 1.44 µM
  TGI: 3.21 µM
[45]
  GI50: 0.156 µM
  TGI: 0.332 µM
[46]
  GI50: 0.185 µM
  TGI: 0.368 µM
[47]
  GI50: 1.56 µM
  TGI: 4.45 µM
[48]
  GI50: 1.25 µM
  TGI: 3.38 µM
[49]
  GI50: 0.263 µM
  TGI: 0.745 µM
[50]
  GI50: 0.704 µM
  TGI: 1.94 µM
[51]
  GI50: 1.44 µM
  TGI: 2.75 µM
[52]
  GI50: 0.363 µM
  TGI: 1.69 µM
[53]
  GI50: 0.381 µM
  TGI: 1.66 µM
[54]
  GI50: 3.28 µM
  TGI: 10.9 µM
[55]
  GI50: 0.225 µM
  TGI: 0.513 µM
[56]
  GI50: 0.181 µM
  TGI: 0.377 µM
[57]
  GI50: 0.771 µM
  TGI: 2.13 µM
[58]
  GI50: 0.175 µM
  TGI: 0.39 µM

## COc1ccc([C@H]2C(C(=O)c3ccc(Cl)cc3)C3(N[C@@H]2c2ccccc2)C(=O)Nc2ccc(Cl)cc23)cc1 (some centres not stated)
[2]
  GI50: 2.13 µM
  TGI: 9.36 µM
[3]
  GI50: 2.99 µM
  TGI: 12.7 µM
[4]
  GI50: 2.61 µM
  TGI: 13.4 µM
[5]
  GI50: 7.91 µM
  TGI: 27 µM
[6]
  GI50: 6.5 µM
  TGI: 46.5 µM
[7]
  GI50: 7.49 µM
  TGI: 24.9 µM
[8]
  GI50: 6.19 µM
  TGI: 16.2 µM
[9]
  GI50: 4.1 µM
  TGI: 22.2 µM
[10]
  GI50: 2.5 µM
  TGI: 9.26 µM
[11]
  GI50: 6.47 µM
  TGI: 13.6 µM
[12]
  GI50: 1.95 µM
  TGI: 56.6 µM
[13]
  GI50: 1.74 µM
  TGI: 10.8 µM
[14]
  GI50: 6.39 µM
  TGI: 23.1 µM
[15]
  GI50: 2.75 µM
  TGI: 14 µM
[16]
  GI50: 3.08 µM
  TGI: 13.1 µM
[17]
  GI50: 2.4 µM
  TGI: 13.7 µM
[18]
  GI50: 5.33 µM
  TGI: 21.5 µM
[19]
  GI50: 9.38 µM
  TGI: 17.9 µM
[20]
  GI50: 4.98 µM
  TGI: 14 µM
[21]
  GI50: 3.62 µM
  TGI: 48 µM
[22]
  GI50: 6.16 µM
  TGI: 13.4 µM
[23]
  GI50: 2.93 µM
  TGI: 12 µM
[24]
  GI50: 1.99 µM
  TGI: 10.6 µM
[25]
  GI50: 6.64 µM
  TGI: 14.8 µM
[26]
  GI50: 4.02 µM
  TGI: 14.5 µM
[27]
  GI50: 6.91 µM
  TGI: 14.6 µM
[28]
  GI50: 2.44 µM
  TGI: 12.8 µM
[29]
  GI50: 11.5 µM
  TGI: 38.4 µM
[30]
  GI50: 5.24 µM
  TGI: 14.3 µM
[31]
  GI50: 2.08 µM
  TGI: 20.5 µM
[32]
  GI50: 5.77 µM
  TGI: 27.1 µM
[33]
  GI50: 2.32 µM
  TGI: 17.9 µM
[34]
  GI50: 5.11 µM
  TGI: 20 µM
[35]
  GI50: 7.42 µM
  TGI: 19.8 µM
[36]
  GI50: 3.32 µM
  TGI: 25.1 µM
[37]
  GI50: 2.09 µM
  TGI: 8.15 µM
[38]
  GI50: 2.38 µM
  TGI: 10.7 µM
[39]
  GI50: 6.72 µM
  TGI: 14.5 µM
[40]
  GI50: 3.54 µM
  TGI: 13.7 µM
[41]
  GI50: 6.43 µM
  TGI: 30.7 µM
[42]
  GI50: 3.86 µM
  TGI: 12.7 µM
[43]
  GI50: 7.07 µM
  TGI: 19.8 µM
[44]
  GI50: 6.69 µM
  TGI: 18.6 µM
[45]
  GI50: 2.62 µM
  TGI: 10.5 µM
[46]
  GI50: 4.87 µM
  TGI: 12.2 µM
[47]
  GI50: 3.21 µM
  TGI: 38 µM
[48]
  GI50: 2.82 µM
  TGI: 27.2 µM
[49]
  GI50: 7.28 µM
  TGI: 16.6 µM
[50]
  GI50: 1.53 µM
  TGI: 15.1 µM
[51]
  GI50: 6.48 µM
  TGI: 14.1 µM
[52]
  GI50: 1.91 µM
  TGI: 13.1 µM
[53]
  GI50: 5.5 µM
  TGI: 13 µM
[54]
  GI50: 8.68 µM
  TGI: 22.4 µM
[55]
  GI50: 2.2 µM
  TGI: 8.71 µM
[56]
  GI50: 8.38 µM
  TGI: 16.1 µM
[57]
  GI50: 6.75 µM
  TGI: 14.5 µM
[59]
  GI50: 2.31 µM
  TGI: 57.5 µM
[58]
  GI50: 3 µM
  TGI: 10.4 µM
